Results: US20220152523A1, “Cannabinoid Separation by Countercurrent Chromatography” (priority 2019, published 2022)
Like-named read-outs stand apart in the source and are kept apart here.

[1] = solvent system SS 1: sec-BuOH-1% TFA/water (1:1)
[2] = solvent system SS 3: Hexane-acetone-acetonitrile (5:2:3)
[3] = solvent system SS 4: EtOAc-n-BuOH-water (2:1:3)
[4] = solvent system SS 5: EtOAc-n-BuOH-1% aq. TFA (2:1:3)
[5] = solvent system SS 6: Hexane-EtOAc-MeOH-water (6:1:6:1)
[6] = solvent system Sec-BuOH-water (1:1)

| Compound | K, partition coefficient (ratio of upper phase to lower phase) [1] | K, partition coefficient (ratio of upper phase to lower phase) (solvent system SS 2: n-BuOH-1% aq. TFA (1:1)) | K, partition coefficient (ratio of upper phase to lower phase) [2] | K, partition coefficient (ratio of upper phase to lower phase) [3] | K, partition coefficient (ratio of upper phase to lower phase) [4] | K, partition coefficient (ratio of upper phase to lower phase) [5] | K, partition coefficient (ratio of upper phase to lower phase) [6] | K, partition coefficient (ratio of upper phase to lower phase) (solvent system n-BuOH-water (1:1)) |
| --- | --- | --- | --- | --- | --- | --- | --- | --- |
| C=C(C)[C@@H]1CCC(C)=C[C@H]1c1c(O)cc(CCCCC)cc1O [CBD, cannabidiol] | 2.7 | 8.6 | 0.99 | 4.2 | 16.5 | 0.5 | 5.5 | – |
| CCCCCc1cc(O)c2c(c1)OC(C)(C)[C@@H]1CCC(C)=C[C@@H]21 [THC, Δ9-Tetrahydrocannabinol] | 6.14 | – | 0.56 | 6.55 | 10.9 | 2.4 | 9.4 | 33 |
